Results from US9738902B2, “Modified PYR/PYL receptors activated by ligands” (priority 2013, dated 2017).

Experiments:
Assay in all cases: Y2H Pocket Library Screen (HAB1, X-gal)
Format in all cases: cell-based
PYR1 K59R F108A = target: T1, PYR1 K59R F108A (Arabidopsis thaliana, UniProt O49686, F108A/K59R)
T1 construct: expressed in transfected cells; host or cells: S. cerevisiae Y190 yeast two-hybrid reporter strain
Outline: (§1)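 Mutant PYR1 variants are screened in yeast two-hybrid against HAB1, with 100 μM compound in –Leu/–Trp dextrose agar; responsiveness is judged by X-gal staining after 2 days at 30° C.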

PYR1 K59R F108G = target: T2, PYR1 K59R F108G (Arabidopsis thaliana, UniProt O49686, F108G/K59R)
T2 construct: expressed in transfected cells; host or cells: S. cerevisiae Y190 yeast two-hybrid reporter strain
Outline: as §1

PYR1 K59R F108N = target: T3, PYR1 K59R F108N (Arabidopsis thaliana, UniProt O49686, F108N/K59R)
T3 construct: expressed in transfected cells; host or cells: S. cerevisiae Y190 yeast two-hybrid reporter strain
Outline: as §1

PYR1 K59R F108T = target: T4, PYR1 K59R F108T (Arabidopsis thaliana, UniProt O49686, F108T/K59R)
T4 construct: expressed in transfected cells; host or cells: S. cerevisiae Y190 yeast two-hybrid reporter strain
Outline: as §1

PYR1 K59R F108V = target: T5, PYR1 K59R F108V (Arabidopsis thaliana, UniProt O49686, F108V/K59R)
T5 construct: expressed in transfected cells; host or cells: S. cerevisiae Y190 yeast two-hybrid reporter strain
Outline: as §1

PYR1 K59R F159A = target: T6, PYR1 K59R F159A (Arabidopsis thaliana, UniProt O49686, F159A/K59R)
T6 construct: expressed in transfected cells; host or cells: S. cerevisiae Y190 two-hybrid reporter strain
Outline: as §1

PYR1 K59R A160I = target: T7, PYR1 K59R A160I (Arabidopsis thaliana, UniProt O49686, A160I/K59R)
T7 construct: expressed in transfected cells; host or cells: S. cerevisiae Y190
Outline: as §1

PYR1 K59R A160N = target: T8, PYR1 K59R A160N (Arabidopsis thaliana, UniProt O49686, A160N/K59R)
T8 construct: expressed in transfected cells; host or cells: S. cerevisiae Y190
Outline: as §1

PYR1 K59R A160V = target: T9, PYR1 K59R A160V (Arabidopsis thaliana, UniProt O49686, A160V/K59R)
T9 construct: expressed in transfected cells; host or cells: S. cerevisiae Y190
Outline: as §1

PYR1 K59R E141H = target: T10, PYR1 K59R E141H (Arabidopsis thaliana, UniProt O49686, E141H/K59R)
T10 construct: expressed in transfected cells; host or cells: S. cerevisiae Y190 two-hybrid reporter strain
Outline: as §1

PYR1 K59R E141Y = target: T11, PYR1 K59R E141Y (Arabidopsis thaliana, UniProt O49686, E141Y/K59R)
T11 construct: expressed in transfected cells; host or cells: S. cerevisiae Y190 two-hybrid reporter strain
T11 sequence (O49686 whole entry K59R/E141Y): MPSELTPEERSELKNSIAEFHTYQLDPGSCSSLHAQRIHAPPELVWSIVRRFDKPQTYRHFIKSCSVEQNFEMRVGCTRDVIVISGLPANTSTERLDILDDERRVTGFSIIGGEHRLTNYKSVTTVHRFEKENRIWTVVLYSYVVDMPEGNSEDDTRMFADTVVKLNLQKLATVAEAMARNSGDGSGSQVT
T11 sequence (Q9CAJ0 23-511, further chain): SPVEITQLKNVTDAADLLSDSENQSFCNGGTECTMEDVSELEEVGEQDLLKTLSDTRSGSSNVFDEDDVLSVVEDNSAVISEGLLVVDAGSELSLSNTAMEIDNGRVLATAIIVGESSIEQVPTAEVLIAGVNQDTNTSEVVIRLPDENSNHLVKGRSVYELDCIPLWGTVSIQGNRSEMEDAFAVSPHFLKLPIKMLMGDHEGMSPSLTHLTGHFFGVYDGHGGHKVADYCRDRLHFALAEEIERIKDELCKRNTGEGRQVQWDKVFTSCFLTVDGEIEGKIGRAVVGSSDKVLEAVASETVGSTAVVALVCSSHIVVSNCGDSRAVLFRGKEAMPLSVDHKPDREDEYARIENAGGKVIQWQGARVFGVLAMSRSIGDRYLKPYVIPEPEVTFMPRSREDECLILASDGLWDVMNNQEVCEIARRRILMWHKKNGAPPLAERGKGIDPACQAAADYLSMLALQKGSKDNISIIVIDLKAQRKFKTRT
Outline: as §1

PYR1 K59R E94D = target: T12, PYR1 K59R E94D (Arabidopsis thaliana, UniProt O49686, E94D/K59R)
T12 construct: expressed in transfected cells; host or cells: S. cerevisiae Y190 yeast two-hybrid reporter strain
T12 sequence (O49686 whole entry K59R/E94D): as the sequence (O49686 whole entry K59R/E141Y) above, with E94D, Y141E counted along it
T12 sequence (Q9CAJ0 23-511 partner): as the sequence (Q9CAJ0 23-511, further chain) above
Outline: as §1

PYR1 K59R L87P = target: T13, PYR1 K59R L87P (Arabidopsis thaliana, UniProt O49686, K59R/L87P)
T13 construct: expressed in transfected cells; host or cells: S. cerevisiae Y190 yeast two-hybrid reporter strain
Outline: as §1

PYR1 K59R M158A = target: T14, PYR1 K59R M158A (Arabidopsis thaliana, UniProt O49686, K59R/M158A)
T14 construct: expressed in transfected cells; host or cells: S. cerevisiae Y190 two-hybrid reporter strain
Outline: as §1

PYR1 K59R M158V = target: T15, PYR1 K59R M158V (Arabidopsis thaliana, UniProt O49686, K59R/M158V)
T15 construct: expressed in transfected cells; host or cells: S. cerevisiae Y190 two-hybrid reporter strain
T15 sequence (O49686 whole entry K59R/M158V): as the sequence (O49686 whole entry K59R/E141Y) above, with Y141E, M158V counted along it
T15 sequence (Q9CAJ0 23-511, further chain): as the sequence (Q9CAJ0 23-511, further chain) above
Outline: as §1

PYR1 K59R N167A = target: T16, PYR1 K59R N167A (Arabidopsis thaliana, UniProt O49686, K59R/N167A)
T16 construct: expressed in transfected cells; host or cells: S. cerevisiae Y190 two-hybrid reporter strain
T16 sequence (O49686 whole entry K59R/N167A): as the sequence (O49686 whole entry K59R/E141Y) above, with Y141E, N167A counted along it
T16 sequence (Q9CAJ0 23-511 partner): as the sequence (Q9CAJ0 23-511, further chain) above
Outline: as §1

PYR1 K59R N167C = target: T17, PYR1 K59R N167C (Arabidopsis thaliana, UniProt O49686, K59R/N167C)
T17 construct: expressed in transfected cells; host or cells: S. cerevisiae Y190 two-hybrid reporter strain
T17 sequence (O49686 whole entry K59R/N167C): as the sequence (O49686 whole entry K59R/E141Y) above, with Y141E, N167C counted along it
T17 sequence (Q9CAJ0 23-511 partner): as the sequence (Q9CAJ0 23-511, further chain) above
Outline: as §1

PYR1 K59R N167D = target: T18, PYR1 K59R N167D (Arabidopsis thaliana, UniProt O49686, K59R/N167D)
T18 construct: expressed in transfected cells; host or cells: S. cerevisiae Y190 two-hybrid reporter strain
Outline: as §1

PYR1 K59R N167G = target: T19, PYR1 K59R N167G (Arabidopsis thaliana, UniProt O49686, K59R/N167G)
T19 construct: expressed in transfected cells; host or cells: S. cerevisiae Y190 two-hybrid reporter strain
Outline: as §1

PYR1 K59R N167Q = target: T20, PYR1 K59R N167Q (Arabidopsis thaliana, UniProt O49686, K59R/N167Q)
T20 construct: expressed in transfected cells; host or cells: S. cerevisiae Y190 two-hybrid reporter strain
Outline: as §1

PYR1 K59R T162K = target: T21, PYR1 K59R T162K (Arabidopsis thaliana, UniProt O49686, K59R/T162K)
T21 construct: expressed in transfected cells; host or cells: S. cerevisiae Y190
T21 sequence (O49686 whole entry K59R/T162K): as the sequence (O49686 whole entry K59R/E141Y) above, with Y141E, T162K counted along it
T21 sequence (Q9CAJ0 23-511, further chain): as the sequence (Q9CAJ0 23-511, further chain) above
Outline: as §1

PYR1 K59R T162L = target: T22, PYR1 K59R T162L (Arabidopsis thaliana, UniProt O49686, K59R/T162L)
T22 construct: expressed in transfected cells; host or cells: S. cerevisiae Y190
Outline: as §1

PYR1 K59R T162W = target: T23, PYR1 K59R T162W (Arabidopsis thaliana, UniProt O49686, K59R/T162W)
T23 construct: expressed in transfected cells; host or cells: S. cerevisiae Y190
T23 sequence (O49686 whole entry K59R/T162W): as the sequence (O49686 whole entry K59R/E141Y) above, with Y141E, T162W counted along it
T23 sequence (Q9CAJ0 23-511, further chain): as the sequence (Q9CAJ0 23-511, further chain) above
Outline: as §1

PYR1 K59R V164A = target: T24, PYR1 K59R V164A (Arabidopsis thaliana, UniProt O49686, K59R/V164A)
T24 construct: expressed in transfected cells; host or cells: S. cerevisiae Y190
Outline: as §1

PYR1 K59R V164E = target: T25, PYR1 K59R V164E (Arabidopsis thaliana, UniProt O49686, K59R/V164E)
T25 construct: expressed in transfected cells; host or cells: S. cerevisiae Y190
Outline: as §1

PYR1 K59R V164L = target: T26, PYR1 K59R V164L (Arabidopsis thaliana, UniProt O49686, K59R/V164L)
T26 construct: expressed in transfected cells; host or cells: S. cerevisiae Y190
Outline: as §1

PYR1 K59R V164T = target: T27, PYR1 K59R V164T (Arabidopsis thaliana, UniProt O49686, K59R/V164T)
T27 construct: expressed in transfected cells; host or cells: S. cerevisiae Y190 two-hybrid reporter strain
Outline: as §1

Measured: Threshold

C#CCOc1ccc(CCNC(=O)C(OCC#C)c2ccc(Cl)cc2)cc1OC (stereo not drawn) [Mandipropamid, mandipropamid]
100 µM: PYR1 K59R F108A | PYR1 K59R F108G | PYR1 K59R F108N | PYR1 K59R F108T | PYR1 K59R F108V | PYR1 K59R F159A

N#Cc1c(Cl)cccc1Cl [Dichlobenil, dichlobenil]
not listed: PYR1 K59R F108A | PYR1 K59R F108G | PYR1 K59R F108N | PYR1 K59R F108T | PYR1 K59R F108V | PYR1 K59R F159A
100 µM: all other assays above
